Measurements reported in patent US11197859B2 (AUTIFONY THERAPEUTICS LIMITED, priority 2010, dated 2021).
Entries after “also recorded” stand apart in the source; their conditions may differ.

How the values were obtained:
Male CD-1 mice = experiment: Psychostimulant (amphetamine)-induced hyperactivity in mice; conditions: AMPH 2 mg/kg i.p. + clozapine 3 mg/kg i.p. 30 min before; over 60 min; mean ± sem; p<0.01 vs amphetamine alone
[1] = molecular target: T1, human Kv3.2 channels (hKv3.2) (Homo sapiens, UniProt Q96PR1); experiment: IonWorks Quattro electrophysiology, hKv3.2 currents, activation time constant (Tauact); type: cell-based; conditions: hKv3.2, -15 mV pulse; compound 0.2 μM (concentration giving ~0.3 nA current)
T1 construct: expressed in transfected cells
T1 sequence (Q96PR1 1-638): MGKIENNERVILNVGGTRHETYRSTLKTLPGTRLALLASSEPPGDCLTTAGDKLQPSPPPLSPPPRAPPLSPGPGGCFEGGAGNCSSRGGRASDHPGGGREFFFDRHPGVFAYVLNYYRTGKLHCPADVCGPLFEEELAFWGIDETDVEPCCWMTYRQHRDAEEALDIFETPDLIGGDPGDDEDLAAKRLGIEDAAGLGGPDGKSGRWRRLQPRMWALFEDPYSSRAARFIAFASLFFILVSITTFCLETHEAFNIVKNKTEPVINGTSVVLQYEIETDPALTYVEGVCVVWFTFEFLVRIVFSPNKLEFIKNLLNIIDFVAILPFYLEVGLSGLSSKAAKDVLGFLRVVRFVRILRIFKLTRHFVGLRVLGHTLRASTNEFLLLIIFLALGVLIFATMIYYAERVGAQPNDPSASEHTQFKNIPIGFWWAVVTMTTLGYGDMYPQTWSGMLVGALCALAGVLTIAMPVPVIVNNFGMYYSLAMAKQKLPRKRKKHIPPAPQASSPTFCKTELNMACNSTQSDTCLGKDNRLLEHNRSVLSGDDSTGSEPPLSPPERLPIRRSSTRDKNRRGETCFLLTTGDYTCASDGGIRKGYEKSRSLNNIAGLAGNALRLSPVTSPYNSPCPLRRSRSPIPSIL
Method: The ability of the compounds of the disclosure to modulate the voltage-gated potassium channel subtypes Kv3.2/3.1 may be determined using the following assay.
To assess compound effects on human Kv3.2 channels (hKv3.2), a stable cell line expressing hKv3.2 was created by transfecting Chinese Hamster Ovary (CHO)-K1 cells with a pCIH5-hKv3.2 vector. Cells were cultured in DMEM/F12 medium supplemented by 10% Foetal Bovine Serum, 1× non-essential amino acids (Invitrogen) and 500 ug/ml of Hygromycin-B (Invitrogen). Cells were grown and maintained at 37° C. in a humidified environment containing 5% CO2 in air.
The day of the experiment, cells were removed from the incubator and the culture medium removed. Cells were washed with 5 ml of Dulbecco's PBS (DPBS) calcium and magnesium free and detached by the addition of 3 ml Versene (Invitrogen, Italy) followed by a brief incubation at 37° C. for 5 minutes. The flask was tapped to dislodge cells and 10 ml of DPBS containing calcium and magnesium was added to prepare a cell suspension. The cell suspension was then placed into a 15 ml centrifuge tube and centrifuged for 2 min at 1200 rpm. After centrifugation, the supernatant was removed and the cell pellet re-suspended in 4 ml of DPBS containing calcium and magnesium using a 5 ml pipette to break up the pellet. Cell suspension volume was then corrected to give a cell concentration for the assay of approximately 3 million cells per ml.
Experiments were conducted at room temperature using IonWorks Quattro™ planar array electrophysiology technology (Molecular Devices Corp.) with PatchPlate™ PPC. Stimulation protocols and data acquisition were carried out using a microcomputer (Dell Pentium 4). Planar electrode hole resistances(Rp) were determined by applying a 10 mV voltage step across each well. These measurements were performed before cell addition. […] Following this, amphotericin-B solution was added to the intracellular face of the electrode to achieve intracellular access. Cells were held at −70 mV. Leak subtraction was conducted in all experiments by applying 50 ms hyperpolarizing (10 mV) prepulses to evoke leak currents followed by a 20 ms period at the holding potential before test pulses. From the holding potential of −70 mV, a first test pulse to −15 mV was applied for 100 ms and following a further 100 ms at −70 mV, a second pulse to 40 mV was applied for 50 ms. Cells were then maintained for a further 100 ms at −100 mV and then a voltage ramp from −100 mV to 40 mV was applied over 200 ms. In all experiments, the test pulses protocol was performed in the absence (pre-read) and presence (post-read) of the test compound. Pre- and post-reads were separated by the compound addition followed by a 3 minute incubation.
The intracellular solution contained the following (in mM): K-gluconate 100, KCl 54, MgCl2 3.2, HEPES 5, adjusted to pH 7.3 with KOH. Amphotericin-B solution was prepared as 50 mg/ml stock solution in DMSO and diluted to a final working concentration of 0.1 mg/ml in intracellular solution.
The final assay dilution was 200 and the final compound concentrations were in the range 50 μM to 50 nM.
The recordings were analysed and filtered using both seal resistance (>20 MΩ) and peak current amplitude (>500 pA at the voltage step of 40 mV) in the absence of compound to eliminate unsuitable cells from further analysis. Kv3 channel-mediated outward currents were measured determined from the mean amplitude of the current over the final 10 ms of the −15 mV voltage pulse minus the mean baseline current at −70 mV over a 10 ms period just prior to the −15 mV step. This Kv3 channel currents following addition of the test compound were then compared with the currents recorded prior to compound addition. […] The normalised data were analysed using ActivityBase or Excel software.

[2] = system: "fast-firing" interneurons in the somatosensory cortex; experiment: Recordings from fast-firing interneurons, spike probability on trains of depolarising pulses; type: cell-based, mouse; conditions: 1 microM, n=6; trains at 100, 200, 300 Hz; effect at 300 Hz, p<0.05
From the text: Kv3.1 and Kv3.2 channels must activate and deactivate very rapidly in order to allow neurons to fire actions potentials at high frequency (Rudy and McBain, 2001, Trends in Neurosciences 24, 517-526). Slowing of activation is likely to delay the onset of action potential repolarisation; slowing of deactivation could lead to hyperpolarising currents that reduce the excitability of the neuron and delay the time before the neuron can fire a further action potential. Together these slowing effects on channel activation and deactivation are likely to lead to a reduction rather than a facilitation of the neurons ability to fire at high frequencies. Thus compounds that have this slowing effect on the Kv3.1 and/or Kv3.2 channels may slow neuronal firing.
The neurons are induced to fire at high frequencies by trains of high frequency depolarising current pulses at 100, 200, and 300 Hz. The ability of the neuron to fire an action potential on each pulse is determined. […] In the absence of drug (closed circles, n=9), the neurons maintained a spike probability of 1 up to 300 Hz.

MNTB neurons = experiment: High-voltage activated potassium currents in MNTB neurons, in vitro; type: cell-based, mouse; conditions: 1 mM
Method: Male CBA/Ca mice (aged 12-16 days) were used in these experiments (in accordance with the UK Animals Scientific Procedures Act, 1986). Brain slices containing the medial nucleus of the trapezoid body (MNTB) were prepared as described previously (Brew and Forsythe, 2005).
Chemicals and reagents were purchased from Sigma, (Poole, UK) unless otherwise noted. Reference Example RE1 was dissolved in DMSO and diluted in ACSF to the required concentration.
Recordings from identified MNTB neurons were conducted as previously described (Brew and Forsythe, 2005). Slices was placed in a superfusion chamber on an inverted microscope stage and continuously perfused with gassed (95% O2-5% CO2) ACSF at a rate of 1 ml min-1 at room temperature. Whole-cell recordings were made from visually identified MNTB neurons using an […] amplifier (Molecular Devices, Union City, Calif., USA). Patch solution comprised (in mM) potassium gluconate (97.5), KCl (32.5), Hepes (40), EGTA (5), MgCl2 (1), Na2phosphocreatin (5), pH 7.2 with KOH. Pipettes had resistances of 3-5 MΩ and series resistances were 6-10 MΩ (compensated by 70%, 10 μs lag). Access resistance was frequently monitored and the recording discarded if increases were more than 2 MΩ. […]

Kv3 channels = conditions: cited from earlier work
[3] = system: parvalbumin-positive interneurons in the somatosensory cortex; experiment: Firing of parvalbumin-positive interneurons in somatosensory cortex slices, in vitro; type: cell-based, mouse; conditions: 0.5 mM, vs control slices (0.1% DMSO)
Male CD rats = experiment: Electroshock seizure model in rats; type: in vivo, rat; conditions: 300 mg/kg p.o., 1 hour before test; positive control
Method: Male CD rats (85-130 g) were supplied by Charles River, Italy.
Testing involved determining the threshold for tonic hindlimb extensor seizures using a Hugo Sachs Electronik stimulator which delivers a constant current of 0.3 second duration, 50 Hz, sinewave form, fully adjustable between 1 and 300 mA. Stimuli were delivered via corneal electrodes (Stean T O, Atkins A R, Heidbreder C A, Quinn L P, Trail B K, Upton N. (2005) Br J Pharmacol. 144(5):628-35). Seizure threshold was determined using the ‘up and down’ method of Kimball et al. (1957)(Kimball A W, Burnett W T Jr, Doherty D G. (1957) Radiat Res. 7(1):1-12). The first animal tested in each group was stimulated with a current that might be expected to be close to the threshold for induction of a seizure. If a tonic seizure was not induced, then the next animal in the group received a stimulus 5 mA higher. If a tonic seizure was induced, then the next animal received a stimulus 5 mA lower. This is repeated for all animals within the control (vehicle) group. In the case of groups treated with a test compound steps of 5 to 10 mA were used. At the end of the study, blood samples were taken for analysis of the drug concentrations in this compartment (n=4/group).
All doses were calculated as base. Sodium valproate was suspended in Methocell 1% (w/v) and dosed via the oral (p.o.) route at 5 mL/kg 1 hour before test. Reference Example RE1 was dissolved in DMSO and then suspended in Methocell 1% (w/v) to a final DMSO concentration of 5% (v/v). Reference Example RE1 was then dosed p.o. at 5 mL/kg 2 hours before test.
Induction of seizure is measured as an all-or-nothing effect scored as either present (+) or absent (0) for each animal. […] Drug effects were calculated as the % change in CC50. Significant differences between drug-treated animals and appropriate vehicle treated groups were assessed according to the methods of Litchfield and Wilcoxon (1949).

In the case of `CN1CCN(C2=Nc3cc(Cl)ccc3Nc3ccccc32)CC1` [Clozapine, reference compound], the “Total Distance Travelled (cm)” value (Male CD-1 mice) is reported as 932 ± 362 cm.

For `CC[C@H]1NC(=O)N(c2ccc(Oc3cccc4c3C3(CC3)CO4)nc2)C1=O` [Example 15, (5R)-5-ethyl-3-[6-(spiro[1-benzofuran-3,1′-cyclopropan]-4-yloxy)-3-pyridinyl]-2,4-imidazolidinedione], the “Tauact mean” value [1] was 50.1 ms and the “ability of neurons to fire (spike probability) on trains of depolarising pulses” value [2] was “reduces the ability of the neurons to fire; also recorded: unable to follow trains at the highest frequency”.

For `CC[N+](CC)(CC)CC` [TEA, Tetraethylammonium, reference compound], the “amplitude of outward high voltage-activated potassium currents evoked by voltage steps to +40 mV” value (MNTB neurons) is given as “significantly reduced”, the “inhibition of Kv3 channels” value (Kv3 channels) is given as “inhibit the channels at low millimolar concentrations” and the action potential half-width [3] is given as “significantly increased”. The “maximal frequency of action potential firing in response to step currents” value [3] was “fired at a lower maximal frequency”.

In the case of `CCCC(CCC)C(=O)[O-].[Na+]` [sodium valproate, Sodium valproate, reference compound], the “increase in seizure threshold (% change in CC50)” value (Male CD rats) is reported as 258%.
